Earlier results on two compounds are cited in patent US20150080442A1, “TRANSMUCOSAL DRUG DELIVERY SYSTEM” (PHARMACEUTICAL PRODUCTIONS INC., priority 2013, published 2015).

The conditions of data set [1]: pH 6.8.

On to `CN1CCCC1c1cccnc1` (centres unmarked) [nicotine], for which, in data set [1], the “nicotine in the free base form” value is on record as “about 10%”.

For `CN(C)CCc1c[nH]c2ccc(C[C@H]3COC(=O)N3)cc12` [Zolmitriptan], the “mean absolute oral bioavailability” value is “approximately 40%”.
